Measured values taken from BindingDB's records for doi:10.1016/S0960-894X(00)80454-0 (1992).

Assay: In vitro binding affinity using [3H]LTB4 radioligand binding to leukotriene B4 receptor in human neutrophil binding assay

Row | Structure (SMILES) | Ki
1 | CCCc1c(OCCCOc2cc(O)c(OCC)cc2CC)ccc2c1OC(C(=O)O)CC2 (configuration not stated) [7-[3-(4-Ethoxy-2-ethyl-5-hydroxy-phenoxy)-propoxy]-8-propyl-chroman-2-carboxylic acid] | 3.5 nM
2 | CCCc1c(OCCCOc2cc(O)c(OC)cc2CC)ccc2c1OC(C(=O)O)CC2 (configuration not stated) [7-[3-(2-Ethyl-5-hydroxy-4-methoxy-phenoxy)-propoxy]-8-propyl-chroman-2-carboxylic acid] | 1.9 nM
